Patent US20130216666A1, “CASHEW NUT SHELL LIQUID WITH IMPROVED STABILITY” (IDEMITSU KOSAN CO., LTD., priority 2010, published 2013)
Like-named read-outs stand apart in the source and are kept apart here.

What was measured:
[1] = 80° C.; for Anacardic Acid 15:1 Composition (%) / Anacardic Acid 15:1 concentration / Anacardic Acid 15:2 Composition (%) / Anacardic Acid 15:2 concentration / Anacardic Acid 15:3 Composition (%) / Anacardic Acid 15:3 concentration / Cardanol 15:1 Composition (%) / Cardanol 15:1 concentration / Cardanol 15:2 Composition (%) / Cardanol 15:2 concentration / Cardanol 15:3 Composition (%) / Cardanol 15:3 concentration: 10% by weight in unheated CNSL
[2] = Inhibition of decarboxylation reaction in unheated cashew nut shell liquid formulation (silica), phosphoric acid / phosphate; format: physicochemical; details: 80° C.; for Anacardic Acid 15:1 Composition (%) / Anacardic Acid 15:1 concentration / Anacardic Acid 15:2 Composition (%) / Anacardic Acid 15:2 concentration / Anacardic Acid 15:3 Composition (%) / Anacardic Acid 15:3 concentration / Cardanol 15:1 Composition (%) / Cardanol 15:1 concentration / Cardanol 15:2 Composition (%) / Cardanol 15:2 concentration / Cardanol 15:3 Composition (%) / Cardanol 15:3 concentration: 10% by weight in unheated CNSL, mixed with silica
Description: 10 g of silica (Sipernat 22) was placed into each of beakers. […] The sodium dihydrogen phosphate was added as an aqueous solution.

## O=P([O-])(O)O.[Na+] [Sodium Dihydrogen Phosphate, sodium dihydrogen phosphate]
[1]; Day 0
  Anacardic Acid 15:1 Composition (%): 39.93%
  Anacardic Acid 15:1 concentration: 1103 ppm
  Anacardic Acid 15:2 Composition (%): 14.10%
  Anacardic Acid 15:2 concentration: 389 ppm
  Anacardic Acid 15:3 Composition (%): 32.43%
  Anacardic Acid 15:3 concentration: 896 ppm
  Cardanol 15:1 Composition (%): 5.46%
  Cardanol 15:1 concentration: 151 ppm
  Cardanol 15:2 Composition (%): 2.52%
  Cardanol 15:2 concentration: 70 ppm
  Cardanol 15:3 Composition (%): 5.55%
  Cardanol 15:3 concentration: 153 ppm
[1]; Day 3
  Anacardic Acid 15:1 Composition (%): 30.94%
  Anacardic Acid 15:1 concentration: 964 ppm
  Anacardic Acid 15:2 Composition (%): 10.81%
  Anacardic Acid 15:2 concentration: 337 ppm
  Anacardic Acid 15:3 Composition (%): 24.87%
  Anacardic Acid 15:3 concentration: 774 ppm
  Cardanol 15:1 Composition (%): 14.32%
  Cardanol 15:1 concentration: 446 ppm
  Cardanol 15:2 Composition (%): 5.95%
  Cardanol 15:2 concentration: 185 ppm
  Cardanol 15:3 Composition (%): 13.10%
  Cardanol 15:3 concentration: 408 ppm
[1]; 10% by weight, three days
  inhibition of the decarboxylation: moderate inhibition
[2]; Day 0
  Anacardic Acid 15:1 Composition (%): 40.20%
  Anacardic Acid 15:1 concentration: 563.78 ppm
  Anacardic Acid 15:2 Composition (%): 14.00%
  Anacardic Acid 15:2 concentration: 196.40 ppm
  Anacardic Acid 15:3 Composition (%): 32.21%
  Anacardic Acid 15:3 concentration: 451.72 ppm
  Cardanol 15:1 Composition (%): 5.74%
  Cardanol 15:1 concentration: 80.56 ppm
  Cardanol 15:2 Composition (%): 2.45%
  Cardanol 15:2 concentration: 34.39 ppm
  Cardanol 15:3 Composition (%): 5.39%
  Cardanol 15:3 concentration: 75.66 ppm
[2]; Day 3
  Anacardic Acid 15:1 Composition (%): 32.90%
  Anacardic Acid 15:1 concentration: 502.26 ppm
  Anacardic Acid 15:2 Composition (%): 11.28%
  Anacardic Acid 15:2 concentration: 172.11 ppm
  Anacardic Acid 15:3 Composition (%): 25.93%
  Anacardic Acid 15:3 concentration: 395.86 ppm
  Cardanol 15:1 Composition (%): 13.16%
  Cardanol 15:1 concentration: 200.81 ppm
  Cardanol 15:2 Composition (%): 5.23%
  Cardanol 15:2 concentration: 79.82 ppm
  Cardanol 15:3 Composition (%): 11.50%
  Cardanol 15:3 concentration: 175.60 ppm
[2]; formulation with silica, 10% by weight, 3 days
  inhibition of the decarboxylation: moderate inhibition
